This note sets out measurements from US8163871B2, “Enzymatic reactions in the presence of keto acids” (Unigene Laboratories, Inc., priority 2004, dated 2012).

This assay relates to peptidylglycine α-amidating monooxygenase (PAM). Description: α-Amidation of rhPTH(1-31)Gly32-OH to rhPTH(1-31)-NH2 with PAM in the presence of α-keto acids/esters (CEX-HPLC area %). Format: biochemical. To be noted: 4 mg/mL rhPTH(1-31)Gly32-OH, 15,000 U/mL PAM, MES pH 6.3-6.5, 4 hours at 37° C. From the text:
Because the R group is unchanged in this reaction, a large number of R moieties is possible. Applicants have tested a number of keto acids (or corresponding esters or salts thereof), and have reported their efficacy in Table 1 below for the amidation of recombinant human parathyroid hormone truncate (first 31 amino acids of PTH followed by C-terminal glycine). Amidation using catalase is also reported in the footnotes to Table 1. […] A preferred concentration was chosen for each compound. Also, separate controls are therefore used with respect to each of the compounds tested in Table 1, so that each compound's performance may be compared to its corresponding control. […] The control values that are set forth in Table 1 are typical values observed for amidation of rhPTH(1-31)Gly32-OH in the absence of the reaction-enhancing compounds of the invention.
To determine the information in Table 1 below, stock solutions of all reagents were prepared in water. Amidations were carried out under the following conditions: 4 mg/mL rhPTH(1-31)Gly32-OH, 30 mM 2-morpholinoethanesulfonic acid (MES) pH [6.3-6.5], 0.5 μM cupric sulfate, 5 mM potassium iodide, 2 mM ascorbate, [0-1%] ethanol and 15,000 U/mL PAM. All reactions were incubated for 4 hours at 37° C. Reagents were added in the following order: rhPTH(1-31)Gly32-OH, water, MES, potassium iodide, ethanol, cupric sulfate, α-keto acid or ester, ascorbate and PAM. All reactions were acidified to pH 2.0 with 6% trifluoroacetic acid and analyzed by CEX-HPLC (area %) to detect formation of the desired product rhPTH(1-31)NH2.

As for `COC(=O)C(C)=O` [Methyl pyruvate], the “% Conversion” value (50 mM compound) is reported as 86%. As for `CC(C)CC(=O)C(=O)[O-].[Na+]` [4-Methyl-2-oxopentanoic acid, sodium salt], the “% Conversion” value (10-150 mM compound) is given as below 48%. For the molecule `CC(=O)C(=O)[O-].[Na+]` [Sodium pyruvate], the “% Conversion” value (8 mM compound) worked out at 95%.

In the case of `CC(=O)C(=O)O` [Pyruvic acid], the “% Conversion” value (6 mM compound, average of triplicate values) is given as 86^a %. As for `CCC(=O)C(=O)[O-].[Na+]` [2-Ketobutyric acid, sodium salt], for the setting “16 mM compound”, the “% Conversion” value is given as 96%. `CCOC(=O)C(C)=O` [Ethyl pyruvate]: the “% Conversion” value (50 mM compound) amounted to 89%. For 2-Keto glutaric acid, sodium salt, the “% Conversion” value (10 mM compound) amounted to 76%. The same measure, in the same setting: the result for `O=C(O)C(=O)c1ccccc1` [Benzoylformic acid] reads 82%. For `CCC(C)C(=O)C(=O)[O-].[Na+]` (stereo not shown) [3-Methyl-2-oxopentanoic acid, sodium salt], under “10-150 mM compound”, the “% Conversion” value is listed as “≦61%”. `CC(C)C(=O)C(=O)[O-].[Na+]` [3-Methyl-2-oxobutanoic acid, sodium salt]: the “% Conversion” value (64 mM compound) was found to be 78%.
